# Measured values reported in publication PMC5218480 (PLoS ONE, 2017).
# Tested on: MV-4-11 cells
# Assay: Gene expression microarray analysis (Affymetrix PrimeView) and GSEA
# Assay type: cell-based, human
# Parameters: RFU PODN (11730768_x_at) / Fold change /veh PODN (11730768_x_at) / RFU LINC00158 (11744669_a_at) / Fold change /veh LINC00158 (11744669_a_at) / RFU DUSP10 (11751237_a_at) / Fold change /veh DUSP10 (11751237_a_at) / RFU ID3 (11757404_x_at) / Fold change /veh ID3 (11757404_x_at) / RFU PLEKHG5 (11737974_s_at) / Fold change /veh PLEKHG5 (11737974_s_at) / RFU LRRC4B (11730491_at) / Fold change /veh LRRC4B (11730491_at) / RFU GIMAP4 (11747438_a_at) / Fold change /veh GIMAP4 (11747438_a_at) / RFU KRT8 (11758183_x_at) / Fold change /veh KRT8 (11758183_x_at) / RFU CNN1 (11734310_a_at) / Fold change /veh CNN1 (11734310_a_at) / RFU VPS37D (11726825_at) / Fold change /veh VPS37D (11726825_at) / RFU C10orf10 (11716522_x_at) / Fold change /veh C10orf10 (11716522_x_at) / RFU KIR2DL2 /// KIR2DL4 /// KIR2DL5A /// KIR2DL5B /// KIR2DS1 /// KIR2DS2 /// KIR2DS3 /// KIR2DS4 /// KIR3DL3 /// KIR3DL3 /// KIR3DS1 (11738374_at) / Fold change /veh KIR2DL2 /// KIR2DL4 /// KIR2DL5A /// KIR2DL5B /// KIR2DS1 /// KIR2DS2 /// KIR2DS3 /// KIR2DS4 /// KIR3DL3 /// KIR3DL3 /// KIR3DS1 (11738374_at) / RFU C1QL1 (11718748_at) / Fold change /veh C1QL1 (11718748_at) / RFU TMPRSS4 (11747572_a_at) / Fold change /veh TMPRSS4 (11747572_a_at) / RFU HAMP (11756126_x_at) / Fold change /veh HAMP (11756126_x_at) / RFU RNFT2 (11725882_a_at) / Fold change /veh RNFT2 (11725882_a_at) / RFU NR4A2 (11747474_a_at) / Fold change /veh NR4A2 (11747474_a_at) / RFU ABCC12 (11746883_a_at) / Fold change /veh ABCC12 (11746883_a_at) / RFU TMEM136 (11760407_x_at) / Fold change /veh TMEM136 (11760407_x_at) / RFU CLDN22 /// WWC2 (11732394_at) / Fold change /veh CLDN22 /// WWC2 (11732394_at) / RFU HLA-DPB1 (11760878_x_at) / Fold change /veh HLA-DPB1 (11760878_x_at) / RFU SPINT1 (11716480_a_at) / Fold change /veh SPINT1 (11716480_a_at) / RFU GAP43 (11754022_s_at) / Fold change /veh GAP43 (11754022_s_at) / RFU A4GNT (11735810_at) / Fold change /veh A4GNT (11735810_at) / RFU PRB3 (11715151_x_at) / Fold change /veh PRB3 (11715151_x_at) / RFU TUBB4B (11761932_at) / Fold change /veh TUBB4B (11761932_at) / RFU CAPN14 (11732068_a_at) / Fold change /veh CAPN14 (11732068_a_at) / RFU TMCC2 (11721928_a_at) / Fold change /veh TMCC2 (11721928_a_at) / RFU IRGQ (11745062_a_at) / Fold change /veh IRGQ (11745062_a_at) / RFU FAM174B (11720279_a_at) / Fold change /veh FAM174B (11720279_a_at) / RFU TMPRSS4 (11748680_a_at) / Fold change /veh TMPRSS4 (11748680_a_at) / RFU FAM212B (11763350_a_at) / Fold change /veh FAM212B (11763350_a_at) / RFU PLEKHG5 (11743358_a_at) / Fold change /veh PLEKHG5 (11743358_a_at) / RFU ZSCAN30 (11745921_a_at) / Fold change /veh ZSCAN30 (11745921_a_at) / RFU CMKLR1 (11741424_a_at) / Fold change /veh CMKLR1 (11741424_a_at) / RFU LOC101060620 /// MAPK8IP1 (11723275_at) / Fold change /veh LOC101060620 /// MAPK8IP1 (11723275_at) / RFU SPTSSB (11747773_x_at) / Fold change /veh SPTSSB (11747773_x_at) / RFU PRSS12 (11739890_at) / Fold change /veh PRSS12 (11739890_at) / RFU BIN1 (11741810_x_at) / Fold change /veh BIN1 (11741810_x_at) / RFU WNT11 (11732464_a_at) / Fold change /veh WNT11 (11732464_a_at) / RFU C10orf10 (11716521_a_at) / Fold change /veh C10orf10 (11716521_a_at) / RFU C5orf56 (11738089_at) / Fold change /veh C5orf56 (11738089_at) / RFU CYB561 (11721691_x_at) / Fold change /veh CYB561 (11721691_x_at) / RFU ANKRD19P (11752326_a_at) / Fold change /veh ANKRD19P (11752326_a_at) / RFU OR2T12 /// OR2T33 /// OR2T8 (11738714_s_at) / Fold change /veh OR2T12 /// OR2T33 /// OR2T8 (11738714_s_at) / RFU VCAN (11748164_a_at) / Fold change /veh VCAN (11748164_a_at) / RFU JSRP1 (11732532_at) / Fold change /veh JSRP1 (11732532_at) / RFU KRTAP10-11 (11738290_x_at) / Fold change /veh KRTAP10-11 (11738290_x_at) / RFU MYO3A (11730013_a_at) / Fold change /veh MYO3A (11730013_a_at) / RFU EBF3 (11725865_a_at) / Fold change /veh EBF3 (11725865_a_at) / RFU CAMK2N1 (11719241_x_at) / Fold change /veh CAMK2N1 (11719241_x_at) / RFU C5orf56 (11738088_a_at) / Fold change /veh C5orf56 (11738088_a_at) / RFU OLFML3 (11715873_a_at) / Fold change /veh OLFML3 (11715873_a_at) / RFU LOC100653217 /// NTM (11731650_a_at) / Fold change /veh LOC100653217 /// NTM (11731650_a_at) / RFU MAPK11 (11762145_a_at) / Fold change /veh MAPK11 (11762145_a_at) / RFU FIZ1 (11724087_x_at) / Fold change /veh FIZ1 (11724087_x_at) / RFU OASL (11726364_x_at) / Fold change /veh OASL (11726364_x_at) / RFU SOX15 (11748057_x_at) / Fold change /veh SOX15 (11748057_x_at) / RFU CD79A (11719716_a_at) / Fold change /veh CD79A (11719716_a_at) / RFU HIST1H1D (11736915_at) / Fold change /veh HIST1H1D (11736915_at) / RFU CASKIN2 (11723855_a_at) / Fold change /veh CASKIN2 (11723855_a_at) / RFU LOC730098 (11760151_x_at) / Fold change /veh LOC730098 (11760151_x_at) / RFU OR4N2 (11742367_at) / Fold change /veh OR4N2 (11742367_at) / RFU PRRT2 (11749266_a_at) / Fold change /veh PRRT2 (11749266_a_at) / RFU SNX32 (11753110_a_at) / Fold change /veh SNX32 (11753110_a_at) / RFU CDHR5 (11726645_a_at) / Fold change /veh CDHR5 (11726645_a_at) / RFU RCAN1 (11760418_a_at) / Fold change /veh RCAN1 (11760418_a_at) / RFU FAM167A (11723789_a_at) / Fold change /veh FAM167A (11723789_a_at) / RFU FAM26E (11764081_at) / Fold change /veh FAM26E (11764081_at) / RFU ISYNA1 (11749810_s_at) / Fold change /veh ISYNA1 (11749810_s_at) / RFU ACY1 (11761880_at) / Fold change /veh ACY1 (11761880_at) / RFU 11764098_at / Fold change /veh 11764098_at / RFU SAMD14 (11745864_x_at) / Fold change /veh SAMD14 (11745864_x_at) / RFU NPB (11741838_a_at) / Fold change /veh NPB (11741838_a_at) / RFU TMPRSS6 (11731388_a_at) / Fold change /veh TMPRSS6 (11731388_a_at) / RFU KRTAP10-2 (11738614_at) / Fold change /veh KRTAP10-2 (11738614_at) / RFU ARHGAP8 /// PRR5-ARHGAP8 (11727945_x_at) / Fold change /veh ARHGAP8 /// PRR5-ARHGAP8 (11727945_x_at) / RFU KRTAP5-7 /// NADSYN1 (11734609_at) / Fold change /veh KRTAP5-7 /// NADSYN1 (11734609_at) / RFU RASL12 (11751679_a_at) / Fold change /veh RASL12 (11751679_a_at) / RFU CDKN2B (11736163_a_at) / Fold change /veh CDKN2B (11736163_a_at) / RFU PRF1 (11729649_at) / Fold change /veh PRF1 (11729649_at) / RFU, ZNF638 /// ZNF638-IT1 / Fold change vs veh, ZNF638 /// ZNF638-IT1 / RFU, PANK3 / Fold change vs veh, PANK3 / RFU, SH3YL1 / Fold change vs veh, SH3YL1 / RFU, ZEB2 / Fold change vs veh, ZEB2 / RFU, NRIP1 / Fold change vs veh, NRIP1 / RFU, PTTG1IP / Fold change vs veh, PTTG1IP / RFU, CAPN2 / Fold change vs veh, CAPN2 / RFU, MED14 / Fold change vs veh, MED14 / RFU, SNORA58 / Fold change vs veh, SNORA58 / RFU, C1orf63 / Fold change vs veh, C1orf63 / RFU, LRRFIP1 / Fold change vs veh, LRRFIP1 / RFU, NDUFAF7 / Fold change vs veh, NDUFAF7 / RFU, SLC12A2 / Fold change vs veh, SLC12A2 / RFU, IBTK / Fold change vs veh, IBTK / RFU, ESF1 / Fold change vs veh, ESF1 / Fold change vs veh, TMEM50B / RFU, TAOK1 / Fold change vs veh, TAOK1 / RFU, ACBD3 / Fold change vs veh, ACBD3 / RFU, TMA16 / Fold change vs veh, TMA16 / RFU, RWDD3 / Fold change vs veh, RWDD3 / RFU, BCAT1 / Fold change vs veh, BCAT1 / RFU, EDEM3 / Fold change vs veh, EDEM3 / RFU, TMEM33 / Fold change vs veh, TMEM33 / RFU, WDR75 / Fold change vs veh, WDR75 / RFU, AHCTF1 / Fold change vs veh, AHCTF1 / RFU, TFRC / Fold change vs veh, TFRC / RFU, ZDHHC17 / Fold change vs veh, ZDHHC17 / RFU, NOM1 / Fold change vs veh, NOM1 / RFU, ARL8B / Fold change vs veh, ARL8B / RFU, ZBTB11 / Fold change vs veh, ZBTB11 / RFU, TAMM41 / Fold change vs veh, TAMM41 / RFU, KIAA1704 /// LOC100996395 / Fold change vs veh, KIAA1704 /// LOC100996395 / RFU, ING1 / Fold change vs veh, ING1 / RFU, TRMT61B / Fold change vs veh, TRMT61B / RFU, FUBP3 / Fold change vs veh, FUBP3 / RFU, TP53 / Fold change vs veh, TP53 / RFU, TNKS2 / Fold change vs veh, TNKS2 / RFU, ZFP14 / Fold change vs veh, ZFP14 / RFU, ACTR2 / Fold change vs veh, ACTR2 / RFU, PPP3R1 / Fold change vs veh, PPP3R1 / RFU, PIK3R1 / Fold change vs veh, PIK3R1 / RFU, HNRNPA1 / Fold change vs veh, HNRNPA1 / RFU, RNF170 / Fold change vs veh, RNF170 / RFU, ZNF28 / Fold change vs veh, ZNF28 / RFU, RNGTT / Fold change vs veh, RNGTT / RFU, OGT / Fold change vs veh, OGT / RFU, BRD1 / Fold change vs veh, BRD1 / RFU, MARS / Fold change vs veh, MARS / RFU, ZNF655 / Fold change vs veh, ZNF655 / RFU, FAHD1 / Fold change vs veh, FAHD1 / RFU, BDP1 / Fold change vs veh, BDP1 / RFU, LRRCC1 / Fold change vs veh, LRRCC1 / RFU, ARID1A / Fold change vs veh, ARID1A / RFU, ZNF146 / Fold change vs veh, ZNF146 / RFU, ZNF330 / Fold change vs veh, ZNF330 / RFU, GPN3 / Fold change vs veh, GPN3 / RFU, C9orf123 / Fold change vs veh, C9orf123 / RFU, N4BP2L2 / Fold change vs veh, N4BP2L2 / RFU, ARFIP1 / Fold change vs veh, ARFIP1 / RFU, FAM179B / Fold change vs veh, FAM179B / RFU, BCL10 / Fold change vs veh, BCL10 / RFU, UHRF1BP1L / Fold change vs veh, UHRF1BP1L / RFU, BET1 / Fold change vs veh, BET1 / RFU, CNOT2 / Fold change vs veh, CNOT2 / RFU, ZNF268 / Fold change vs veh, ZNF268 / Fold change vs veh, ZNF507 / RFU, DGCR2 / Fold change vs veh, DGCR2 / RFU, WDSUB1 / Fold change vs veh, WDSUB1 / Fold change vs veh, HSP90B1 /// MIR3652 / RFU, ADSS / Fold change vs veh, ADSS / RFU, GK / Fold change vs veh, GK / RFU, ZNF148 / Fold change vs veh, ZNF148 / RFU, TAF9 / Fold change vs veh, TAF9 / RFU, SLC1A5 / Fold change vs veh, SLC1A5 / RFU, SLMO2 / Fold change vs veh, SLMO2 / RFU, ABCC4 / Fold change vs veh, ABCC4 / RFU, LOC101060439 /// RAP1B / Fold change vs veh, LOC101060439 /// RAP1B / RFU, RFX7 / Fold change vs veh, RFX7 / RFU, GTPBP10 / Fold change vs veh, GTPBP10 / RFU, CNEP1R1 / Fold change vs veh, CNEP1R1 / RFU, BIVM-ERCC5 /// ERCC5 / Fold change vs veh, BIVM-ERCC5 /// ERCC5 / RFU, ILF3 / Fold change vs veh, ILF3 / RFU 11762660_at / Fold change /veh 11762660_at / RFU VCAN (11757783_s_at) / Fold change /veh VCAN (11757783_s_at) / RFU DDX43 (11728927_at) / Fold change /veh DDX43 (11728927_at) / RFU KRT8 (11758188_x_at) / Fold change /veh KRT8 (11758188_x_at) / RFU NKD1 (11759106_at) / Fold change /veh NKD1 (11759106_at) / RFU SRD5A1 (11742802_a_at) / Fold change /veh SRD5A1 (11742802_a_at) / RFU TPSAB1 /// TPSB2 (11721975_s_at) / Fold change /veh TPSAB1 /// TPSB2 (11721975_s_at) / RFU GSTM3 (11746129_a_at) / Fold change /veh GSTM3 (11746129_a_at) / RFU IL23R (11737362_x_at) / Fold change /veh IL23R (11737362_x_at) / RFU TMEM51 (11727254_a_at) / Fold change /veh TMEM51 (11727254_a_at) / RFU PIWIL2 (11732686_x_at) / Fold change /veh PIWIL2 (11732686_x_at) / RFU ORM1 (11744905_x_at) / Fold change /veh ORM1 (11744905_x_at) / RFU CCDC152 (11743942_at) / Fold change /veh CCDC152 (11743942_at) / RFU ECM1 (11717891_a_at) / Fold change /veh ECM1 (11717891_a_at) / RFU IL23R (11748794_a_at) / Fold change /veh IL23R (11748794_a_at) / RFU TNFAIP8L3 (11732012_x_at) / Fold change /veh TNFAIP8L3 (11732012_x_at) / RFU MBOAT4 (11741988_at) / Fold change /veh MBOAT4 (11741988_at) / RFU 11764193_at / Fold change /veh 11764193_at / RFU TMEM53 (11763286_at) / Fold change /veh TMEM53 (11763286_at) / RFU MAGEB2 (11727129_at) / Fold change /veh MAGEB2 (11727129_at) / RFU TMEM200A (11744735_a_at) / Fold change /veh TMEM200A (11744735_a_at) / RFU CCDC152 (11751479_a_at) / Fold change /veh CCDC152 (11751479_a_at) / RFU FAM211A (11726209_a_at) / Fold change /veh FAM211A (11726209_a_at) / RFU RGS16 (11746705_a_at) / Fold change /veh RGS16 (11746705_a_at) / RFU VCAN (11755009_s_at) / Fold change /veh VCAN (11755009_s_at) / RFU RHOB (11743442_s_at) / Fold change /veh RHOB (11743442_s_at) / RFU RGS16 (11720943_a_at) / Fold change /veh RGS16 (11720943_a_at) / RFU RGS16 (11720944_at) / Fold change /veh RGS16 (11720944_at) / RFU, VPS4B / Fold change vs veh, VPS4B / RFU, CREB1 / Fold change vs veh, CREB1 / RFU, DNAJC13 / Fold change vs veh, DNAJC13 / RFU, GNAQ / Fold change vs veh, GNAQ / RFU, CDK5R1 / Fold change vs veh, CDK5R1 / RFU, ZRANB3 / Fold change vs veh, ZRANB3 / RFU, CUL4A / Fold change vs veh, CUL4A / RFU, CCNY / Fold change vs veh, CCNY / RFU, UFL1 / Fold change vs veh, UFL1 / RFU, COG3 / Fold change vs veh, COG3 / RFU, DIAPH2 / Fold change vs veh, DIAPH2 / RFU, SKA2 / Fold change vs veh, SKA2 / RFU, AFF3 / Fold change vs veh, AFF3 / RFU, LMF1 / Fold change vs veh, LMF1 / RFU, IPO11 / Fold change vs veh, IPO11 / RFU, DFFB / Fold change vs veh, DFFB / RFU, FOXP1 / Fold change vs veh, FOXP1 / RFU, CARD8 / Fold change vs veh, CARD8 / RFU, STRN3 / Fold change vs veh, STRN3 / RFU, ADK / Fold change vs veh, ADK / RFU, RASSF2 / Fold change vs veh, RASSF2 / RFU, WIPF1 / Fold change vs veh, WIPF1 / RFU, LARP1B / Fold change vs veh, LARP1B / RFU, RASA1 / Fold change vs veh, RASA1 / RFU, RB1 / Fold change vs veh, RB1 / RFU, PPFIA1 / Fold change vs veh, PPFIA1 / RFU, MAT2A / Fold change vs veh, MAT2A / RFU, CCT5 / Fold change vs veh, CCT5 / RFU, WDR92 / Fold change vs veh, WDR92 / RFU, CUX1 / Fold change vs veh, CUX1 / RFU, TTC7A / Fold change vs veh, TTC7A / RFU, TMEM135 / Fold change vs veh, TMEM135 / RFU, DEPTOR / Fold change vs veh, DEPTOR / RFU, CPM / Fold change vs veh, CPM / RFU, DNAJB6 / Fold change vs veh, DNAJB6 / RFU, CACNA2D3 / Fold change vs veh, CACNA2D3 / RFU, DTX4 / Fold change vs veh, DTX4 / RFU, TFCP2 / Fold change vs veh, TFCP2 / RFU, GMCL1 /// GMCL1P1 / Fold change vs veh, GMCL1 /// GMCL1P1 / RFU, AEBP2 / Fold change vs veh, AEBP2 / RFU, SNHG1 /// SNORD22 /// SNORD25 /// SNORD26 /// SNORD27 /// SNORD28 /// SNORD29 /// SNORD31 / Fold change vs veh, SNHG1 /// SNORD22 /// SNORD25 /// SNORD26 /// SNORD27 /// SNORD28 /// SNORD29 /// SNORD31 / Fold change (Aza/veh), C12orf56 (ProbeSet 11735607_a_at) / Fold change (ACY-1035/veh), C12orf56 (ProbeSet 11735607_a_at) / Fold change (Aza/veh), FGFR1OP (ProbeSet 11751329_s_at) / Fold change (ACY-1035/veh), FGFR1OP (ProbeSet 11751329_s_at) / Fold change (Aza/veh), VPS36 (ProbeSet 11739960_a_at) / Fold change (ACY-1035/veh), VPS36 (ProbeSet 11739960_a_at) / RFU SYPL1 (11715823_x_at) / Fold change /veh SYPL1 (11715823_x_at) / RFU IGFBP7 (11715501_s_at) / Fold change /veh IGFBP7 (11715501_s_at) / RFU REEP3 (11722064_at) / Fold change /veh REEP3 (11722064_at) / RFU IGLL1 (11728026_x_at) / Fold change /veh IGLL1 (11728026_x_at): dose or concentration left out as unconfirmed
# Details: ProbeSet 11728443_a_at; LIST B
smiles,measurement,value
Nc1ccc(-c2cccs2)cc1NC(=O)c1ccc2c(c1)cc(C1CC1)n2CCN1CCOCC1 [ACY-1035],"Fold change vs veh, TAOK1",0.89
